From PubChem BioAssay AID248 (DTP/NCI, 2004)
Values joined by “and” are separate entries in the source; they are usually repeats but may differ in a detail not shown here. Equal values may be shown once. Inconclusive results and toxic doses are left out. No stated cut-off is given here; in the data, active means T/C of 150% or more; inactive means T/C below 125%.

Tested on: L1210 leukemia ip in BDF1 mice, survival T/C
Assay: NCI In Vivo Anticancer Drug Screen. Data for tumor model L1210 Leukemia (intraperitoneal) in B6D2F1 (BDF1) mice
Conditions: endpoint: mean survival time, higher = longer survival
Outline: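 In this screen, tumor-bearing mice given compound are compared to those given vehicle, and their survival values are reported as a treated-to-control quotient.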

[1] = dose: 100.0 mg/kg/injection, schedule: Q01DX001 (ip), vehicle: carboxymethylcellulose (CMC)
[2] = dose: 200.0 mg/kg/injection, schedule: Q01DX001 (ip), vehicle: carboxymethylcellulose (CMC)
[3] = dose: 400.0 mg/kg/injection, schedule: Q01DX001 (ip), vehicle: carboxymethylcellulose (CMC)
[4] = dose: 100.0 mg/kg/injection, schedule: Q04DX003 (ip), vehicle: saline with Tween-80
[5] = dose: 200.0 mg/kg/injection, schedule: Q04DX003 (ip), vehicle: saline with Tween-80
[6] = dose: 100.0 mg/kg/injection, schedule: Q01DX009 (ip), vehicle: Klucel (hydroxypropylcellulose) (HPC)
[7] = dose: 200.0 mg/kg/injection, schedule: Q01DX009 (ip), vehicle: Klucel (hydroxypropylcellulose) (HPC)
[8] = dose: 400.0 mg/kg/injection, schedule: Q01DX009 (ip), vehicle: Klucel (hydroxypropylcellulose) (HPC)

Measured: T/C

NC(CCl)=NCCCCN=C(N)CCl
inactive: dose: 12.5 mg/kg/injection, schedule: Q01DX009 (ip), vehicle: saline 108 % of control | dose: 12.5 mg/kg/injection, schedule: Q04DX002 (ip), vehicle: saline 100 % of control | dose: 25.0 mg/kg/injection, schedule: Q01DX009 (ip), vehicle: saline 101 % of control | dose: 25.0 mg/kg/injection, schedule: Q04DX002 (ip), vehicle: saline 124 % of control

O=C(N/N=C/c1ccccc1)c1ccc(Cl)c(Cl)c1
inactive: dose: 100.0 mg/kg/injection, schedule: Q04DX003 (ip), vehicle: other 100 % of control | dose: 200.0 mg/kg/injection, schedule: Q04DX003 (ip), vehicle: other 92 % of control | dose: 400.0 mg/kg/injection, schedule: Q04DX003 (ip), vehicle: other 89 % of control

O=C(CCCC(=O)N/N=C/c1c(O)ccc2ccccc12)N/N=C/c1c(O)ccc2ccccc12
inactive: dose: 50.0 mg/kg/injection, schedule: Q01DX001 (ip), vehicle: saline 96 % of control | dose: 100.0 mg/kg/injection, schedule: Q01DX001 (ip), vehicle: saline 96 % of control | dose: 200.0 mg/kg/injection, schedule: Q01DX001 (ip), vehicle: saline 96 % of control | dose: 400.0 mg/kg/injection, schedule: Q01DX001 (ip), vehicle: saline 93 % of control

[CH3][Sn]([CH3])=[O]
inactive: dose: 5.0 mg/kg/injection, schedule: Q01DX001 (ip), vehicle: other 95 % of control | dose: 5.0 mg/kg/injection, schedule: Q01DX001 (ip), vehicle: saline 107 % of control | dose: 10.0 mg/kg/injection, schedule: Q01DX001 (ip), vehicle: other 98 % of control | dose: 10.0 mg/kg/injection, schedule: Q01DX001 (ip), vehicle: saline 98 % of control | dose: 20.0 mg/kg/injection, schedule: Q01DX001 (ip), vehicle: other 93 % of control | dose: 20.0 mg/kg/injection, schedule: Q01DX001 (ip), vehicle: saline 108 % of control | dose: 40.0 mg/kg/injection, schedule: Q01DX001 (ip), vehicle: other 103 % of control | dose: 40.0 mg/kg/injection, schedule: Q01DX001 (ip), vehicle: saline 95 % of control

O=[N+]([O-])c1ccc(N=Nc2ccc3c(c2)-c2ccccc2C3=P(c2ccccc2)(c2ccccc2)c2ccccc2)cc1
inactive: [1] 108 % of control | [2] 98 % of control | [3] 93 % of control

O=C(O)CN1C(=O)C2C3CCC(O3)C2C1=O (stereo not drawn)
inactive: dose: 100.0 mg/kg/injection, schedule: Q04DX003 (ip), vehicle: saline 107 % of control | dose: 200.0 mg/kg/injection, schedule: Q04DX003 (ip), vehicle: saline 98 % of control | dose: 400.0 mg/kg/injection, schedule: Q04DX003 (ip), vehicle: saline 98 % of control

CCCCOP1(=O)C=C(C)CC1 (stereo not drawn)
inactive: [4] 90 % of control | [5] 97 % of control | dose: 400.0 mg/kg/injection, schedule: Q04DX003 (ip), vehicle: saline with Tween-80 92 % of control

CC(C)C1N=C(N)N=C(N)N1c1ccc(Cl)c(Cl)c1 (stereo not drawn)
inactive: dose: 75.0 mg/kg/injection, schedule: Q01DX001 (ip), vehicle: saline 105 % of control | dose: 150.0 mg/kg/injection, schedule: Q01DX001 (ip), vehicle: saline 96 % of control

CNC(=O)O/N=C(\C(=N\OC(=O)NC)c1ccccc1)c1ccccc1
inactive: [1] 96 % of control | [2] 96 % of control | [3] 96 % of control

CCN(CC)c1ccc(NC(=O)NC(C)C)cc1
inactive: dose: 50.0 mg/kg/injection, schedule: Q01DX009 (ip), vehicle: saline with Tween-80 101 % of control | dose: 100.0 mg/kg/injection, schedule: Q01DX009 (ip), vehicle: saline with Tween-80 108 % of control | [4] 105 % of control | dose: 200.0 mg/kg/injection, schedule: Q01DX009 (ip), vehicle: saline with Tween-80 97 % of control | [5] 103 % of control

CCOC(=O)C(Cc1ccccc1)(NC=O)C(=O)OCC
inactive: [6] 94 % of control | [7] 98 % of control | [8] 96 % of control

Cc1cccc(NC(=O)Nc2cc(C)on2)c1
inactive: dose: 100.0 mg/kg/injection, schedule: Q01DX001 (ip), vehicle: Klucel (hydroxypropylcellulose) (HPC) 100 % of control | [6] 91 % of control | dose: 100.0 mg/kg/injection, schedule: Q04DX002 (ip), vehicle: Klucel (hydroxypropylcellulose) (HPC) 98 % of control and 102 % of control | dose: 100.0 mg/kg/injection, schedule: Q04DX003 (ip), vehicle: Klucel (hydroxypropylcellulose) (HPC) 92 % of control | dose: 200.0 mg/kg/injection, schedule: Q01DX001 (ip), vehicle: Klucel (hydroxypropylcellulose) (HPC) 95 % of control | [7] 94 % of control and 91 % of control | dose: 200.0 mg/kg/injection, schedule: Q04DX002 (ip), vehicle: Klucel (hydroxypropylcellulose) (HPC) 94 % of control and 98 % of control | dose: 200.0 mg/kg/injection, schedule: Q04DX003 (ip), vehicle: Klucel (hydroxypropylcellulose) (HPC) 93 % of control | dose: 400.0 mg/kg/injection, schedule: Q01DX001 (ip), vehicle: Klucel (hydroxypropylcellulose) (HPC) 95 % of control | [8] 100 % of control and 91 % of control | dose: 400.0 mg/kg/injection, schedule: Q04DX002 (ip), vehicle: Klucel (hydroxypropylcellulose) (HPC) 98 % of control and 109 % of control | dose: 400.0 mg/kg/injection, schedule: Q04DX003 (ip), vehicle: Klucel (hydroxypropylcellulose) (HPC) 93 % of control
